From the supplement of paper PMC10307832

Legend:
Experiment in all cases: relative viability (nuclei count vs DMSO), 5 days (fraction); higher = more cells survive
HCC-15 = system: HCC-15
How it was run: (§1)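 Lung cancer cell lines in 1536-well plates were dosed by pin tool the day after seeding, either with one drug alone or with a fixed anchor-drug dose plus five library-drug doses (not always all listed) in √10 steps. After 5 days, cells were fixed and their nuclei stained in one step (final 0.05% Triton X-100, 1% formaldehyde, 1 ug/ml Hoechst), then counted on 4× images. Relative viability is the nuclei count in treated wells divided by that in vehicle wells. Values are medians of duplicate plates.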

LXF-289 = system: LXF-289
How it was run: as §1

LC-2-ad = system: LC-2-ad
How it was run: as §1

NCI-H2126 = system: NCI-H2126
How it was run: as §1

HCC-78 = system: HCC-78
How it was run: as §1

NCI-H358 = system: NCI-H358
How it was run: as §1

RERF-LC-KJ = system: RERF-LC-KJ
How it was run: as §1

A-427 = system: A-427
How it was run: as §1

NCI-H1734 = system: NCI-H1734
How it was run: as §1

PC-3 [JPC-3] = system: PC-3 [JPC-3]
How it was run: as §1

SK-LU-1 = system: SK-LU-1
How it was run: as §1

HOP-62 = system: HOP-62
How it was run: as §1

NCI-H2342 = system: NCI-H2342
How it was run: as §1

NCI-H647 = system: NCI-H647
How it was run: as §1

NCI-H1915 = system: NCI-H1915
How it was run: as §1

NCI-H2228 = system: NCI-H2228
How it was run: as §1

NCI-H1755 = system: NCI-H1755
How it was run: as §1

NCI-H2347 = system: NCI-H2347
How it was run: as §1

NCI-H1975 = system: NCI-H1975
How it was run: as §1

SW 1573 = system: SW 1573
How it was run: as §1

## O=c1cc(N2CCOCC2)oc2c(-c3cccc4c3sc3ccccc34)cccc12 + COc1cc2c(Oc3ccc(NC(=O)C4(C(=O)Nc5ccc(F)cc5)CC4)cc3F)ccnc2cc1OCCCN1CCOCC1 [Foretinib] (partner 0.25 µM)
HCC-15; first compound 0.01 µM
  relative viability: 1.01
HCC-15; first compound 0.03162 µM
  relative viability: 1.09
HCC-15; first compound 0.1 µM
  relative viability: 1.09
HCC-15; first compound 0.3162 µM
  relative viability: 0.989
HCC-15; first compound 1 µM
  relative viability: 0.971
LXF-289; first compound 0.01 µM
  relative viability: 0.969
LXF-289; first compound 0.03162 µM
  relative viability: 0.984
LXF-289; first compound 0.1 µM
  relative viability: 1
LXF-289; first compound 0.3162 µM
  relative viability: 0.97
LXF-289; first compound 1 µM
  relative viability: 0.965
LC-2-ad; first compound 0.01 µM
  relative viability: 0.89
LC-2-ad; first compound 0.03162 µM
  relative viability: 1.03
LC-2-ad; first compound 0.1 µM
  relative viability: 0.921
LC-2-ad; first compound 0.3162 µM
  relative viability: 0.877
LC-2-ad; first compound 1 µM
  relative viability: 0.795
NCI-H2126; first compound 0.01 µM
  relative viability: 1.16
NCI-H2126; first compound 0.03162 µM
  relative viability: 1.22
NCI-H2126; first compound 0.1 µM
  relative viability: 1.29
NCI-H2126; first compound 0.3162 µM
  relative viability: 1.2
NCI-H2126; first compound 1 µM
  relative viability: 1.24
HCC-78; first compound 0.01 µM
  relative viability: 0.492
HCC-78; first compound 0.03162 µM
  relative viability: 0.457
HCC-78; first compound 0.1 µM
  relative viability: 0.544
HCC-78; first compound 0.3162 µM
  relative viability: 0.581
HCC-78; first compound 1 µM
  relative viability: 0.533
NCI-H358; first compound 0.01 µM
  relative viability: 0.647
NCI-H358; first compound 0.03162 µM
  relative viability: 0.7
NCI-H358; first compound 0.1 µM
  relative viability: 0.667
NCI-H358; first compound 0.3162 µM
  relative viability: 0.741
NCI-H358; first compound 1 µM
  relative viability: 0.774
RERF-LC-KJ; first compound 0.01 µM
  relative viability: 0.831
RERF-LC-KJ; first compound 0.03162 µM
  relative viability: 0.876
RERF-LC-KJ; first compound 0.1 µM
  relative viability: 0.91
RERF-LC-KJ; first compound 0.3162 µM
  relative viability: 0.852
RERF-LC-KJ; first compound 1 µM
  relative viability: 0.846
A-427; first compound 0.01 µM
  relative viability: 1.04
A-427; first compound 0.03162 µM
  relative viability: 1.2
A-427; first compound 0.1 µM
  relative viability: 0.972
A-427; first compound 0.3162 µM
  relative viability: 1.01
A-427; first compound 1 µM
  relative viability: 1
NCI-H1734; first compound 0.01 µM
  relative viability: 0.851
NCI-H1734; first compound 0.03162 µM
  relative viability: 1.03
NCI-H1734; first compound 0.1 µM
  relative viability: 0.894
NCI-H1734; first compound 0.3162 µM
  relative viability: 0.837
NCI-H1734; first compound 1 µM
  relative viability: 0.78
PC-3 [JPC-3]; first compound 0.01 µM
  relative viability: 1.01
PC-3 [JPC-3]; first compound 0.03162 µM
  relative viability: 1.08
PC-3 [JPC-3]; first compound 0.1 µM
  relative viability: 1.05
PC-3 [JPC-3]; first compound 0.3162 µM
  relative viability: 1.01
PC-3 [JPC-3]; first compound 1 µM
  relative viability: 1.06
SK-LU-1; first compound 0.01 µM
  relative viability: 0.893
SK-LU-1; first compound 0.03162 µM
  relative viability: 0.918
SK-LU-1; first compound 0.1 µM
  relative viability: 0.789
SK-LU-1; first compound 0.3162 µM
  relative viability: 0.834
SK-LU-1; first compound 1 µM
  relative viability: 0.768
HOP-62; first compound 0.01 µM
  relative viability: 1.1
HOP-62; first compound 0.03162 µM
  relative viability: 1.17
HOP-62; first compound 0.1 µM
  relative viability: 1.11
HOP-62; first compound 0.3162 µM
  relative viability: 1.14
HOP-62; first compound 1 µM
  relative viability: 1.16
NCI-H2342; first compound 0.01 µM
  relative viability: 1.04
NCI-H2342; first compound 0.03162 µM
  relative viability: 1.11
NCI-H2342; first compound 0.1 µM
  relative viability: 0.997
NCI-H2342; first compound 0.3162 µM
  relative viability: 1.04
NCI-H2342; first compound 1 µM
  relative viability: 1.07
NCI-H647; first compound 0.01 µM
  relative viability: 1.24
NCI-H647; first compound 0.03162 µM
  relative viability: 1.34
NCI-H647; first compound 0.1 µM
  relative viability: 1.34
NCI-H647; first compound 0.3162 µM
  relative viability: 1.24
NCI-H647; first compound 1 µM
  relative viability: 1.08
NCI-H1915; first compound 0.01 µM
  relative viability: 1.12
NCI-H1915; first compound 0.03162 µM
  relative viability: 1.1
NCI-H1915; first compound 0.1 µM
  relative viability: 1.16
NCI-H1915; first compound 0.3162 µM
  relative viability: 1.11
NCI-H1915; first compound 1 µM
  relative viability: 1.06
NCI-H2228; first compound 0.01 µM
  relative viability: 0.864
NCI-H2228; first compound 0.03162 µM
  relative viability: 1.08
NCI-H2228; first compound 0.1 µM
  relative viability: 0.981
NCI-H2228; first compound 0.3162 µM
  relative viability: 0.89
NCI-H2228; first compound 1 µM
  relative viability: 0.9
NCI-H1755; first compound 0.01 µM
  relative viability: 0.899
NCI-H1755; first compound 0.03162 µM
  relative viability: 0.952
NCI-H1755; first compound 0.1 µM
  relative viability: 0.959
NCI-H1755; first compound 0.3162 µM
  relative viability: 0.926
NCI-H1755; first compound 1 µM
  relative viability: 0.934
NCI-H2347; first compound 0.01 µM
  relative viability: 0.963
NCI-H2347; first compound 0.03162 µM
  relative viability: 0.761
NCI-H2347; first compound 0.1 µM
  relative viability: 0.675
NCI-H2347; first compound 0.3162 µM
  relative viability: 0.855
NCI-H2347; first compound 1 µM
  relative viability: 1.05
NCI-H1975; first compound 0.01 µM
  relative viability: 0.842
NCI-H1975; first compound 0.03162 µM
  relative viability: 1.1
NCI-H1975; first compound 0.1 µM
  relative viability: 1.1
NCI-H1975; first compound 0.3162 µM
  relative viability: 0.927
NCI-H1975; first compound 1 µM
  relative viability: 0.936
SW 1573; first compound 0.01 µM
  relative viability: 0.537
SW 1573; first compound 0.03162 µM
  relative viability: 0.982
SW 1573; first compound 0.1 µM
  relative viability: 0.87
SW 1573; first compound 0.3162 µM
  relative viability: 0.87
SW 1573; first compound 1 µM
  relative viability: 1.07
